Eight compounds from ChEMBL document CHEMBL1201862, “PubChem BioAssay data set” (2004) can be followed below.

For experiment [1], the target named is T1, Cytochrome P450 1A2 (Homo sapiens, UniProt P05177).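 Further: PubChem cytochrome P450 panel assay, CYP1A2 panel member.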
T1 sequence (P05177 whole entry): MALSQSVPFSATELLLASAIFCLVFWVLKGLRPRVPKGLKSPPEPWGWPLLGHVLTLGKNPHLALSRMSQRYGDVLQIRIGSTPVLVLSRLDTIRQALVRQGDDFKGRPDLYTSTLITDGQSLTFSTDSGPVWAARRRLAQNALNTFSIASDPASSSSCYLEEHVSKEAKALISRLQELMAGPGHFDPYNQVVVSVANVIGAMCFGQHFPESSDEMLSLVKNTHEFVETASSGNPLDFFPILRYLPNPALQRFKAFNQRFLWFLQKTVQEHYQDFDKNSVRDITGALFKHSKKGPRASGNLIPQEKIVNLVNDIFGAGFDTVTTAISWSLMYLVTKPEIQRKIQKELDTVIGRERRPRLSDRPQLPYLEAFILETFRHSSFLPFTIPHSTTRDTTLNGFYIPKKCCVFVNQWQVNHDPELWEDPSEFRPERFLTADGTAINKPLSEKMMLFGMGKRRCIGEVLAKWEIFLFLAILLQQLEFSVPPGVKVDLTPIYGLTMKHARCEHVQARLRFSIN

For experiment [2], the target named is T2, Cytochrome P450 2C9 (Homo sapiens, UniProt P11712). The following applies: Potency.
T2 sequence (P11712 whole entry): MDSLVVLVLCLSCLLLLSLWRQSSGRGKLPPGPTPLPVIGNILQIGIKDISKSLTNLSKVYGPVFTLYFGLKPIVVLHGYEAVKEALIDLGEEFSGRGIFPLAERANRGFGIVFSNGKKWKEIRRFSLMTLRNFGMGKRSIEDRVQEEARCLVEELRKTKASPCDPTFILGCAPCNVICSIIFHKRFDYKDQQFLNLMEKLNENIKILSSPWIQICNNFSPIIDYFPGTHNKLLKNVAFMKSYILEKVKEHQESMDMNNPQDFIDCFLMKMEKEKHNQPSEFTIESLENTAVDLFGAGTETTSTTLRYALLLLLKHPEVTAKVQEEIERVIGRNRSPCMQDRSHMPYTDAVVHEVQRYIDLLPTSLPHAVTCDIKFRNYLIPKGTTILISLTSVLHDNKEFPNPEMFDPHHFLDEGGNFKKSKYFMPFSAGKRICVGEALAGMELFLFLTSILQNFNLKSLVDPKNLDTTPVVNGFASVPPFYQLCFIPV
Experiment [3] deals with T2, Cytochrome P450 2C9.
The target of experiment [4] is Serine/threonine-protein phosphatase PP1-alpha catalytic subunit (Homo sapiens, UniProt P62136). Description: inhibition of protein phosphatase 1 activity – biochemical, fluorescence, dose response (AID 2403).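 Further: phosphatase turnover of OMFP into fluorescent 3-O-methylfluorescein.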
Chain of Serine/threonine-protein phosphatase PP1-alpha catalytic subunit (P62136 whole entry): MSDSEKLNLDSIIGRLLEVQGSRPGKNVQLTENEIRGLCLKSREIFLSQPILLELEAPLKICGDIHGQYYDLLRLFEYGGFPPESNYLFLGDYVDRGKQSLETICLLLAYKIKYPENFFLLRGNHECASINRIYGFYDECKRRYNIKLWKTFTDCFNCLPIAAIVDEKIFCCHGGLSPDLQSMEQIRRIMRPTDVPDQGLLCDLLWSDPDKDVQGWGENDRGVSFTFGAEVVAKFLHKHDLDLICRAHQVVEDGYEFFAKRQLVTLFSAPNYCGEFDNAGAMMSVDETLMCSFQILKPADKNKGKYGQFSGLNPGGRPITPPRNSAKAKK
Experiment [5] concerns the target Serine/threonine-protein phosphatase (Homo sapiens, UniProt Q9BPW0). As to the kind of experiment: Counterscreen for inhibitors of PP1: fluorescence-based biochemical high throughput dose response assay to identify inhibitors of Protein Phosphatase 5 (PP5). [Related pubchem assays: 2034 (Summary (PP5 inhibitors)), 1987 (PP5 inhibitors in singlate), 2235 (PP1 inhibitors in singlate)].

The target in experiment [6] is T3, Cytochrome P450 2D6 (Homo sapiens, UniProt P10635).
T3 sequence (P10635 whole entry): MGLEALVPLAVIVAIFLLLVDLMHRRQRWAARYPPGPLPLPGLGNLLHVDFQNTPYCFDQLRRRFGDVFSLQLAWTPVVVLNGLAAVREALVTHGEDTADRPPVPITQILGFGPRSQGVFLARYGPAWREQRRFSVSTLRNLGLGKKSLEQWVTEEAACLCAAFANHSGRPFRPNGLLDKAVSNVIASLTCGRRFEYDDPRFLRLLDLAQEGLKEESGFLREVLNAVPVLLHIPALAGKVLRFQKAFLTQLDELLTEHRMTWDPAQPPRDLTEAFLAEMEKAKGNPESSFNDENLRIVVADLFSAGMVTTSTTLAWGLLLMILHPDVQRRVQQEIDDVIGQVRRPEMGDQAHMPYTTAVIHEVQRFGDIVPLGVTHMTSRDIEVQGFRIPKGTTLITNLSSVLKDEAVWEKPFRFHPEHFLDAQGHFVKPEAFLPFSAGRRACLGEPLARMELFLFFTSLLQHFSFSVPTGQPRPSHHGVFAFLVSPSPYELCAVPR
For experiment [7], the target named is T4, Neuropeptide Y receptor type 1 (Homo sapiens, UniProt P25929).
T4 sequence (P25929 whole entry): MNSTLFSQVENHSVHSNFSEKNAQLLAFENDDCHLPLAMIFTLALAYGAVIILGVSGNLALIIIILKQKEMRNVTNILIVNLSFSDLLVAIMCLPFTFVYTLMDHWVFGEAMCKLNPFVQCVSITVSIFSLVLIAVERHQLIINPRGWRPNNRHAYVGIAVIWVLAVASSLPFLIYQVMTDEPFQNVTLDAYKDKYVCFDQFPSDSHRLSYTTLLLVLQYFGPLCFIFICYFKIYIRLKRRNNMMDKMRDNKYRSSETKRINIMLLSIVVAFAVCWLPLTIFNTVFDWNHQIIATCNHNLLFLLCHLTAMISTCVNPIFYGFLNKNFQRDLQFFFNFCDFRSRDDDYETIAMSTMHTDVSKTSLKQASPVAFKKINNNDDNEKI
As to the kind of experiment: Fluorescence-based counterscreen for agonists of NPY-Y2: cell-based high-throughput dose response assay for agonists of NPY-Y1. Type of experiment: functional.

Experiment [8] concerns the target T5, Neuropeptide Y receptor type 2 (Homo sapiens, UniProt P49146).
T5 sequence (P49146 whole entry): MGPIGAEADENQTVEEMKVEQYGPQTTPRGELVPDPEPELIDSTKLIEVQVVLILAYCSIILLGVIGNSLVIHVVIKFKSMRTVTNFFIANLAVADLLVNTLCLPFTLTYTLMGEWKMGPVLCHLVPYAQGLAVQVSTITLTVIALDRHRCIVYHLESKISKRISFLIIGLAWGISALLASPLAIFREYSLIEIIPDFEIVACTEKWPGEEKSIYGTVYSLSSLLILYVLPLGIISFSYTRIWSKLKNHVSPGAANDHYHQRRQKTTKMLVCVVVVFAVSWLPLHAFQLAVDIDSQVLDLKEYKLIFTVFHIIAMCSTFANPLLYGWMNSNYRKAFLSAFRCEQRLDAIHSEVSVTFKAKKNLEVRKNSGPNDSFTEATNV
As to the kind of experiment: Fluorescence-based cell-based high-throughput dose response assay for agonists of NPY-Y2. [Related pubchem assays: 1703 (Screening assay (CNGC inhibitors).), 1359 (Screening assay (NPY-Y2 potentiators or agonists).), 1304 (Screening assay (NPY-Y1 potentiators or agonists).), 1710 (Screening assay (NPY-Y2 agonists).), 1791 (Summary AID.)]. Type of experiment: functional.

For experiment [9], the system named is HEK293. As to the kind of experiment: Fluorescence-based counterscreen for potentiators or agonists of NPY-Y2: cell-based high-throughput dose response assay to identify inhibitors of cyclic nucleotide gated ion channel (CNGC) activity. In this assay, the parental HEK293 cell line transfected with a cyclic-nucleotide gated ion channel (CNGC)-based cAMP sensor is used to measure inhibition of isoproterenol-induced CNGC activity by test compound. The note with it: Homo sapiens. Type of experiment: functional.

Experiment [10] concerns the target Melanin-concentrating hormone receptor 1 (Homo sapiens, UniProt Q99705). As to the kind of experiment: Fluorescence-based counterscreen for antagonists of the G-protein coupled receptor 7 (GPR7): cell-based high throughput dose response assay to identify antagonists of the melanin-concentrating hormone receptor 1 (MCHR1). Type of experiment: functional.
For experiment [11], the target named is Voltage-dependent T-type calcium channel subunit alpha-1H (Homo sapiens, UniProt O95180). Type of experiment: functional.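 Further: channel activity triggered by adding a high calcium stimulation buffer.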
Experiment [12] has as its target T6, Neuropeptides B/W receptor type 1 (Homo sapiens, UniProt P48145).
T6 sequence (P48145 whole entry): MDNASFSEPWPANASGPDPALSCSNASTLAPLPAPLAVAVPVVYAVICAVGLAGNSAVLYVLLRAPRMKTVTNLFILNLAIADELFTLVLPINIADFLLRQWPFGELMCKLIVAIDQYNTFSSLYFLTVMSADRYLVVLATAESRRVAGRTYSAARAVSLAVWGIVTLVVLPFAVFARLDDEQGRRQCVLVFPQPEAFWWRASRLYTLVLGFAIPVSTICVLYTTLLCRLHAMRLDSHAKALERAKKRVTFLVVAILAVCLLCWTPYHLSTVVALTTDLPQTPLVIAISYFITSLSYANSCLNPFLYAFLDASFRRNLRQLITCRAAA
Description: Fluorescence-based dose response cell-based high throughput screening assay to identify antagonists of the G-protein coupled receptor 7 (GPR7). [Related pubchem assays: 1952 (Screening assay (GPR7 antagonists).), 1880 (Summary AID.)]. Type of experiment: functional.

The subject of experiment [13] is Vero. As to the kind of experiment: host cell viability loss, Vero E6 – synthesized analogs, cytotoxicity control for West Nile virus antiviral project, SAR follow-up (AID 2244). The following applies: Chlorocebus sabaeus. Type of experiment: functional.
Experiment [14] has as its target Cytochrome P450 3A4 (Homo sapiens, UniProt P08684). The note with it: Potency.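 Further: confirmatory qHTS run detecting inhibitors and substrates of CYP3A4.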
The target in experiment [15] is T3, Cytochrome P450 2D6. As to the kind of experiment: qHTS Assay for Inhibitors and Substrates of Cytochrome P450 2D6. [Related pubchem assays: 410 ]. Type of experiment: ADME. The following applies: read-out: Potency.
Experiment [16] concerns the target T5, Neuropeptide Y receptor type 2. As to the kind of experiment: Fluorescence-based counterscreen for agonists of NPY-Y1: cell-based high-throughput dose response assay for agonists of NPY-Y2. Type of experiment: functional.
Experiment [17] concerns HEK293. As to the kind of experiment: Fluorescence-based counterscreen for potentiators or agonists of NPY-Y1: cell-based high-throughput dose response assay for inhibitors of cyclic nucleotide gated ion channel (CNGC) activity. In this assay, the parental HEK293 cell line transfected with a cyclic-nucleotide gated ion channel (CNGC)-based cAMP sensor is used to measure inhibition of isoproterenol-induced CNGC …. The following applies: Homo sapiens. Type of experiment: functional.

Experiment [18] addresses T4, Neuropeptide Y receptor type 1. As to the kind of experiment: Fluorescence-based dose response cell-based high-throughput screening assay for agonists of NPY-Y1. [Related pubchem assays: 1697 (Screening assay (NPY-Y1 agonists).), 1359 (Screening assay (NPY-Y2 potentiators or agonists).), 1304 (Screening assay (NPY-Y1 potentiators or agonists).), 1704 (Screening assay (CNGC inhibitors).), 1791 (Summary AID.)]. Type of experiment: functional.

The target in experiment [19] is Procathepsin L (Homo sapiens, UniProt P07711).
Chain of Procathepsin L (P07711 whole entry): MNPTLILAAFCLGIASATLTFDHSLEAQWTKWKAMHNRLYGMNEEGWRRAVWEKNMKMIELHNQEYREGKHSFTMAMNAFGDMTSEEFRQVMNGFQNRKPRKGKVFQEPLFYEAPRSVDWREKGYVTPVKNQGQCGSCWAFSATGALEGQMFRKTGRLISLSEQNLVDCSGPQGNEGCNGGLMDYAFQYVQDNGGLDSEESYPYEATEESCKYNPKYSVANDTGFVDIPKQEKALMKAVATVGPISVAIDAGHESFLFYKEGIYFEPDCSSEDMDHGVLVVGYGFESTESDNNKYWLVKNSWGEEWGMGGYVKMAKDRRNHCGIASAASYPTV
Experiment [20] addresses T7, Estrogen receptor beta (Homo sapiens, UniProt Q92731). As to the kind of experiment: blockers of SRC-3 recruitment to ERβ – biochemical, ELISA, streptavidin-HRP readout, orthogonal assay, confirmation (AID 1060).
Experiment [21] concerns the target T8, Leucine aminopeptidase (Plasmodium falciparum 3D7, UniProt Q8IL11).
T8 sequence (Q8IL11 whole entry): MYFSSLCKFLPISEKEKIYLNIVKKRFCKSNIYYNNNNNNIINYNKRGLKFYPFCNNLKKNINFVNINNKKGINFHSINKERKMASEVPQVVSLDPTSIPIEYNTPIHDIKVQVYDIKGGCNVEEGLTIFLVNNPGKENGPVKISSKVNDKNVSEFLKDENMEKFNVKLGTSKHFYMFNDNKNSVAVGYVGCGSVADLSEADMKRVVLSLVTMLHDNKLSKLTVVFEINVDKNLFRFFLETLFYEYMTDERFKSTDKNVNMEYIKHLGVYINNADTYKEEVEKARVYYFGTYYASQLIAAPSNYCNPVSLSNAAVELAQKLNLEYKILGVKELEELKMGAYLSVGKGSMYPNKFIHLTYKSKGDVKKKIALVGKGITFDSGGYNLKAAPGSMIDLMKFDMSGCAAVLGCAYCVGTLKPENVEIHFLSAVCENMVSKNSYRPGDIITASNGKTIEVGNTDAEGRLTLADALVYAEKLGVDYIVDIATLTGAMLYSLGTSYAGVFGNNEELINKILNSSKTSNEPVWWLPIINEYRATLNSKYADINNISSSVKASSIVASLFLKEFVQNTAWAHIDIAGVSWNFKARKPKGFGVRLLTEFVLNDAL
As to the kind of experiment: P. falciparum M17LAP inhibitors, primary screen, biochemical, fluorogenic H-Leu-NHMec substrate, 1536-well (AID 1619). Type of experiment: functional.

In experiment [22] the target is T9, Zinc finger protein mex-5 (Caenorhabditis elegans, UniProt Q9XUB2).
T9 sequence (Q9XUB2 whole entry): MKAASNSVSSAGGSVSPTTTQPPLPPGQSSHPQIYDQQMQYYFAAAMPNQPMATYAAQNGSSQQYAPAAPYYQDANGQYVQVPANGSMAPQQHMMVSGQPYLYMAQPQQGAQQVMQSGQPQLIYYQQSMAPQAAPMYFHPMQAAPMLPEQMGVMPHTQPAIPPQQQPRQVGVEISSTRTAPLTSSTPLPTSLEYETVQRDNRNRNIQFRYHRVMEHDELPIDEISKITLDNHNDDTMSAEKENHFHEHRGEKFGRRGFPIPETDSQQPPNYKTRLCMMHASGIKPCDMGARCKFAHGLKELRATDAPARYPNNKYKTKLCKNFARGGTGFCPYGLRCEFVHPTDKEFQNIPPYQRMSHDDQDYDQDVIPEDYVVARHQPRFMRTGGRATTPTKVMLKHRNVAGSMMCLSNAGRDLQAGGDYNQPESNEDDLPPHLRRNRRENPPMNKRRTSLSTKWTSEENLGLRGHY
As to the kind of experiment: potency of MEX-5 RNA-binding blockers – biochemical, C. elegans, fluorescence polarization, dose response (AID 1960).

For experiment [23], the target named is T7, Estrogen receptor beta.
Experiment [24] concerns the target Aspartyl aminopeptidase (Plasmodium falciparum 3D7, UniProt Q8I2J3).
Experiment [25] has as its target Large T antigen (Simian virus 40, UniProt P03070). Type of experiment: functional, Betapolyomavirus macacae.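 Further: Confirmatory-stage PubChem screen for compounds that inhibit SV40 T antigen.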
Experiment [26] deals with T10, RNA-binding protein pos-1 (Caenorhabditis elegans, UniProt G5EF15).
T10 sequence (G5EF15 whole entry): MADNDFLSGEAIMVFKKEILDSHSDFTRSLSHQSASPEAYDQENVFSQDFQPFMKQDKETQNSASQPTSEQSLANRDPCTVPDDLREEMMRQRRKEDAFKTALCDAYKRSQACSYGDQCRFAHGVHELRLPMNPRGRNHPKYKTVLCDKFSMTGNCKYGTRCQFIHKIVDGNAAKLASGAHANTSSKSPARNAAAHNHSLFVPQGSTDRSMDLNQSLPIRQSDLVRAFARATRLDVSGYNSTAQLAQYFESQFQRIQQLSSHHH
As to the kind of experiment: disruptors of C. elegans POS-1 RNA interaction – biochemical, fluorescence polarization, dose response (AID 1964).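 Further: purified POS-1 fused to maltose binding protein made in E. coli; potency of compounds blocking POS-1 binding to fluorescent RNA.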

The source made the active and inactive calls.

T7 sequence (Q92731 whole entry): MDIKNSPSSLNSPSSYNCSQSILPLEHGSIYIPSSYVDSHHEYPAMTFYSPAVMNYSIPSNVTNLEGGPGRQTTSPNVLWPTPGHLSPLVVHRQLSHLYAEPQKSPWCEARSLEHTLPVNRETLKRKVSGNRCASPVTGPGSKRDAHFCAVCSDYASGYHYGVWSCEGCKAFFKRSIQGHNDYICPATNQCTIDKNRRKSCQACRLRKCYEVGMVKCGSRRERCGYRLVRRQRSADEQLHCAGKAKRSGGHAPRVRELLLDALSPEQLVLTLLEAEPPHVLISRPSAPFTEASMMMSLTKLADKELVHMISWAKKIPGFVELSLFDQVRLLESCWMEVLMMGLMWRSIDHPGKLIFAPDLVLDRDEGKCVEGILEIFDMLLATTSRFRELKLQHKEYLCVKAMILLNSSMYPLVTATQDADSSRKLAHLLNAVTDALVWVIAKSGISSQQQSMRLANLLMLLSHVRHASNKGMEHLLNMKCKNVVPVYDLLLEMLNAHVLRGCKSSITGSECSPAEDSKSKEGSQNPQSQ
Chain of Melanin-concentrating hormone receptor 1 (Q99705 whole entry): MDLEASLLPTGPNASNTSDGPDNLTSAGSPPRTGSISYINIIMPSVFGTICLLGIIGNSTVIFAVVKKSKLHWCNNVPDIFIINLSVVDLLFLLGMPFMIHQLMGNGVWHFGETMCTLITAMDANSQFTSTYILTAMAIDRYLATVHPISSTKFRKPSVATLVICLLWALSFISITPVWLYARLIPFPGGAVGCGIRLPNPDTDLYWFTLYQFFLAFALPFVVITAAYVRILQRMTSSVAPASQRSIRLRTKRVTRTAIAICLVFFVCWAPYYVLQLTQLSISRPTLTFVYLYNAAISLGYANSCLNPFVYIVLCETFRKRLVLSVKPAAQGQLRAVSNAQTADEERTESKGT
Chain of Large T antigen (P03070 whole entry): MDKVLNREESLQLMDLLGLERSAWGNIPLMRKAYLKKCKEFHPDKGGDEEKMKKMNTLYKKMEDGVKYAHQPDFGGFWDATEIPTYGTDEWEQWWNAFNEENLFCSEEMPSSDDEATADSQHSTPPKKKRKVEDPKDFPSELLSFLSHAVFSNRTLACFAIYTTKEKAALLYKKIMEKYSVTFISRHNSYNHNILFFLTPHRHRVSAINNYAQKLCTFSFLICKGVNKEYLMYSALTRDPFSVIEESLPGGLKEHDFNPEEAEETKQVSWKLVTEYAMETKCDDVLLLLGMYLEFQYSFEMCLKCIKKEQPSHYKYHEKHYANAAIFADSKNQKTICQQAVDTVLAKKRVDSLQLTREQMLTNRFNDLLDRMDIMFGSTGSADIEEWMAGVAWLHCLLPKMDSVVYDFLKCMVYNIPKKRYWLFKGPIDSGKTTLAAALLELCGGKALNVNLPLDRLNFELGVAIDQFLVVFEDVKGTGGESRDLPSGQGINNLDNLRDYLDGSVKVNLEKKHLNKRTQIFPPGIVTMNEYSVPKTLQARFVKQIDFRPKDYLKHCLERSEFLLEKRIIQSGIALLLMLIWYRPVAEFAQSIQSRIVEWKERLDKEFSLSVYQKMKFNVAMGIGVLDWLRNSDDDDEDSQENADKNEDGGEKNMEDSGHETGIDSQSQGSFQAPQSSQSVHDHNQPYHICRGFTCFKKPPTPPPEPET
Chain of Cytochrome P450 3A4 (P08684 whole entry): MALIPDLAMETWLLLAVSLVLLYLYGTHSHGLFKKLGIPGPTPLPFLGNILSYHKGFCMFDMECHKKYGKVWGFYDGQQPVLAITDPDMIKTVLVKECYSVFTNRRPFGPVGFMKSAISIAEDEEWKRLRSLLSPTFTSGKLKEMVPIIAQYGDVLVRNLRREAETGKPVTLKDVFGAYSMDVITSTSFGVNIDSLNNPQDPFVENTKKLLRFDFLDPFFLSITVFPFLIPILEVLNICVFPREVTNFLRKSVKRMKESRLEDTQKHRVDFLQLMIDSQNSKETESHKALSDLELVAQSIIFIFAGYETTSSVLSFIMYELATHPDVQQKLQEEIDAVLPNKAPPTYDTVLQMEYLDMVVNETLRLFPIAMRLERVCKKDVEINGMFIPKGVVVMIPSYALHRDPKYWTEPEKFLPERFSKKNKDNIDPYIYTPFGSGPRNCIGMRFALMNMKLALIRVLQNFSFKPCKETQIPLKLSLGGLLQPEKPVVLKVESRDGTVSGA
Chain of Serine/threonine-protein phosphatase (Q9BPW0 whole entry): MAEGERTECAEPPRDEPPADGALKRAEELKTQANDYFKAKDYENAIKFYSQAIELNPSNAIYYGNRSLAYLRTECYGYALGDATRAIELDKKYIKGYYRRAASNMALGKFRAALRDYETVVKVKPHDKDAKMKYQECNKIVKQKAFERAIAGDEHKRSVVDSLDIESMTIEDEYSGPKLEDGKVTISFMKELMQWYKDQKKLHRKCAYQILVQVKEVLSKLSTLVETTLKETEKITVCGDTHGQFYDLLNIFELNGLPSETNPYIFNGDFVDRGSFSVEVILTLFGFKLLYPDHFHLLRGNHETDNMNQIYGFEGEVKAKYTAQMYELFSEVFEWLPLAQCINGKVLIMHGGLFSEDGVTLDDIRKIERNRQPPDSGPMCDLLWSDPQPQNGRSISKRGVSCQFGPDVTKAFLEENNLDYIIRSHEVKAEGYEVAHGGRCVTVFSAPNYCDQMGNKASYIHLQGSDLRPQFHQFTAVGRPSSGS
Chain of Aspartyl aminopeptidase (Q8I2J3 whole entry): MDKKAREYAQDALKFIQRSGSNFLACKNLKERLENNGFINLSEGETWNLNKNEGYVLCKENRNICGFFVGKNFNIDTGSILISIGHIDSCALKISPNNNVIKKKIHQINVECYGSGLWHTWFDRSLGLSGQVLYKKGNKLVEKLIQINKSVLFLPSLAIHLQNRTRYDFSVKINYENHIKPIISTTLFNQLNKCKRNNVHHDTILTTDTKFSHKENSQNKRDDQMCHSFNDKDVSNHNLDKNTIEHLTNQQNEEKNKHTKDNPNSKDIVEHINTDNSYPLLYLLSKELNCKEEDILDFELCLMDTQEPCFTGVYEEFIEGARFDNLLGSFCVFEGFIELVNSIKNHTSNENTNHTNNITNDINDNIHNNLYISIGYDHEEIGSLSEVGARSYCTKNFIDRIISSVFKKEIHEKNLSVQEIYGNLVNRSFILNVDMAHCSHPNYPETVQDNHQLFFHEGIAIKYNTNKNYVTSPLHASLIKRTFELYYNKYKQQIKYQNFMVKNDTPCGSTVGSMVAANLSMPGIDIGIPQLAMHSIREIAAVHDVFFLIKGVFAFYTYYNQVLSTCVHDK

As to `O=C1NCN(c2ccccc2)C12CCN(C[C@H]1COc3ccccc3O1)CC2`, the figures for the AC50 in [1], in experiment [2] and in experiment [3] were 20 µM (inconclusive), 31.6 µM (inconclusive) and 15.8 µM (inconclusive), respectively.

Regarding `COc1ccc(NC(=O)C2C3CCC(O3)C2C(=O)O)c(OC)c1` (stereo unspecified), the figures for the half-maximal inhibitory concentration (IC50) in experiment [4] and in [5] were 4.95 µM (active) and 4.79 µM (active), respectively.

Take `Cc1cccc(C)c1OCC(O)CNC(C)(C)C` (stereo unspecified): the AC50 in experiment [6] is 8.91 µM (inconclusive). Also, the concentration for a half-maximal effect (EC50) is recorded as > 35.4 µM (not active) in [7], > 35.4 µM (not active) in experiment [8] and 17.9 µM (not active) in experiment [9].

Regarding `Clc1ccccc1-c1nnn(Cc2ccc(-c3nnn[nH]3)cc2)n1`, the concentration for half-maximal inhibition (IC50) in experiment [10] and in [12] was > 43.8 µM (not active) each time. Besides, the EC50 in [11] was 4.37 µM (active).

In the case of `O=C(Nc1nc(-c2ccc(Cl)cc2)cs1)c1ccc(Cl)cc1`, the cytotoxic concentration (CC50) in experiment [13] was > 40 µM (active).

Turning to `C=CCOCC/C=C1/c2ccccc2C(OC)C1C` (stereo unspecified), the AC50 in experiment [14] and in [15] was 3.16 µM (inconclusive) throughout.

As for `COc1ccc(-n2nc3ccc(NS(C)(=O)=O)cc3n2)cc1Cl`, the EC50 in [16] and in experiment [18] was > 35.4 µM (not active) in each case. In experiment [17], the concentration for half-maximal inhibition (IC50) is > 35.4 µM (not active).

`Cc1nc(-c2ccc(O)c(O)c2)cs1`: the IC50 in [19] is > 59.6 µM (not active); in experiment [20], 87.3 µM (not active); in experiment [21], 25.1 µM (active); in experiment [23] it was 10.2 µM (active); in experiment [24], 1.3 µM (active); in experiment [25] it was 6.46 µM (active). For the same compound, the half-maximal effective concentration (EC50) in experiment [22] is 21.3 µM (active); in experiment [26], 36.6 µM (active).
